Starred links: 1 amine or outer side, 2 acyl side, 3 side chain; linkers in the order of their positions; H or OH if unused. Positions of bridges follow the written chain, without caps; N, C: chain ends. Non-standard residues stand in square brackets, D forms with d. Residues, ends and D or L forms follow the SMILES beside them. *: point of attachment. X2 = O=C(C[C@H](N[*:1])C(F)(F)F)[*:2]; NMeF = CN[C@@H](Cc1ccccc1)C(=O)O; Aoc(2) = CCCCCC[C@H](N)C(=O)O; NMeL = CN[C@@H](CC(C)C)C(=O)O; NMeS = CN[C@@H](CO)C(=O)O; NMeA = CN[C@@H](C)C(=O)O; Piperidide = C1CCN(*)CC1; β3hA = C[C@H](N)CC(=O)O; Abu = CC[C@H](N)C(=O)O; Sar = CNCC(=O)O
Key:
[1] = PAMPA (parallel artificial membrane permeability assay); assay type: in vitro ADME; details: PAMPA; membrane permeation rate (Pe); 50 mM MOPSO buffer pH 6.5 with 5.0% glycocholic acid, 37° C., 18 hours; read-out: iPAMPA Pe
In short: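 Artificial membrane was 10% (w/v) egg lecithin plus 0.5% (w/v) cholesterol in dodecane on a PVDF filter. A 10 mM DMSO stock was added at 0.5% (v/v) to donor buffer (50 mM MOPSO, pH 6.5, 5.0% glycocholic acid). After 18 h at 37 °C, LC/MS or LC/UV gave donor and acceptor levels for Pe.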

[2] = Metabolic stability in human hepatic microsome; assay type: in vitro ADME; details: microsomes, pH 7.4; human hepatic microsome, NADPH(+); read-out: CL NADPH(+)

SMILES | Papp at 18 hours, 50 µM [1] | microsomal CLint at 1 uM [2]
CC[C@@H]1NC(=O)[C@H](CC(C)C)N(C)C(=O)[C@H](CC(C)C)NC(=O)[C@H](CC(C)C)N(C)C(=O)CN(C)C(=O)C[C@H](C)NC(=O)[C@H](CO)N(C)C(=O)[C@H](CC(C)C)N(C)C(=O)[C@H](CC(C)C)N(C)C(=O)[C@H](CC(C)C)N(C)C(=O)[C@@H](CC(C)C)NC1=O [DP-641] (cyclo([Abu][dL][NMeL][NMeL][NMeL][NMeS][β3hA][Sar][NMeL]L[NMeL])) | 46 ×10⁻⁶ cm/s | 91 µL/min/mg
CC(C)C[C@@H]1NC(=O)[C@H](CC(C)C)N(C)C(=O)[C@H](C(C)C)NC(=O)[C@H](CC(C)C)N(C)C(=O)CN(C)C(=O)[C@H](CC(C)C)NC(=O)[C@H](CO)N(C)C(=O)[C@H](CC(C)C)N(C)C(=O)[C@H](CC(C)C)N(C)C(=O)C[C@H](C)NC(=O)[C@@H](CC(C)C)NC1=O [DP-642] (cyclo(L[Sar][NMeL]V[NMeL]L[dL][β3hA][NMeL][NMeL][NMeS])) | 32 ×10⁻⁶ cm/s | 65 µL/min/mg
CC(C)C[C@@H]1NC(=O)C[C@H](C)NC(=O)[C@H](C(C)C)NC(=O)[C@H](CC(C)C)N(C)C(=O)CN(C)C(=O)[C@H](CC(C)C)NC(=O)[C@H](CO)N(C)C(=O)[C@H](CC(C)C)N(C)C(=O)[C@H](CC(C)C)N(C)C(=O)[C@H](CC(C)C)N(C)C(=O)[C@@H](CC(C)C)NC1=O [DP-643] (cyclo(L[Sar][NMeL]V[β3hA]L[dL][NMeL][NMeL][NMeL][NMeS])) | 29 ×10⁻⁶ cm/s | 24 µL/min/mg
CC(C)C[C@@H]1NC(=O)[C@H](CO)N(C)C(=O)[C@H](CC(C)C)N(C)C(=O)[C@H](CC(C)C)N(C)C(=O)[C@H](CC(C)C)N(C)C(=O)C[C@H](C)NC(=O)[C@H](C)NC(=O)[C@H](CC(C)C)N(C)C(=O)[C@H](CC(C)C)NC(=O)[C@H](CC(C)C)N(C)C(=O)CN(C)C1=O [DP-644] (cyclo(A[β3hA][NMeL][NMeL][NMeL][NMeS]L[Sar][NMeL]L[NMeL])) | 33 ×10⁻⁶ cm/s | 80 µL/min/mg
CCCCCC[C@@H]1NC(=O)[C@H](CO)N(C)C(=O)[C@H](CC(C)C)N(C)C(=O)[C@H](CC(C)C)N(C)C(=O)[C@H](CC(C)C)N(C)C(=O)[C@@H](C)NC(=O)[C@H](CC)NC(=O)[C@H](CC(C)C)N(C)C(=O)C[C@H](C)NC(=O)[C@H](CC(C)C)N(C)C(=O)CN(C)C1=O [DP-645] (cyclo([Abu][dA][NMeL][NMeL][NMeL][NMeS][Aoc(2)][Sar][NMeL][β3hA][NMeL])) | 49 ×10⁻⁶ cm/s | 74 µL/min/mg
CCCCCC[C@@H]1NC(=O)[C@H](CC(C)C)N(C)C(=O)C[C@H](C)NC(=O)[C@H](CC)NC(=O)[C@H](CO)N(C)C(=O)[C@H](CC(C)C)N(C)C(=O)[C@H](CC(C)C)N(C)C(=O)[C@H](CC(C)C)N(C)C(=O)[C@@H](C)NC(=O)[C@H](C)NC(=O)[C@H](CC(C)C)N(C)C1=O [DP-646] (cyclo(A[dA][NMeL][NMeL][NMeL][NMeS][Abu][β3hA][NMeL][Aoc(2)][NMeL])) | 29 ×10⁻⁶ cm/s | 139 µL/min/mg
CCCCCC[C@@H]1NC(=O)[C@H](CC(C)C)N(C)C(=O)CN(C)C(=O)[C@H](CC(C)C)NC(=O)C[C@H](C)NC(=O)[C@H](CC(C)C)N(C)C(=O)[C@H](CC(C)C)N(C)C(=O)[C@H](CC(C)C)N(C)C(=O)[C@@H](C)NC(=O)[C@H](CO)NC(=O)[C@H](CC(C)C)N(C)C1=O [DP-647] (cyclo([Aoc(2)][NMeL]S[dA][NMeL][NMeL][NMeL][β3hA]L[Sar][NMeL])) | 29 ×10⁻⁶ cm/s | 132 µL/min/mg
CCCCCC[C@@H]1NC(=O)[C@H](CO)N(C)C(=O)C[C@H](C)NC(=O)[C@H](CC(C)C)N(C)C(=O)[C@H](CC(C)C)N(C)C(=O)[C@@H](CC(C)C)NC(=O)[C@H](CC)NC(=O)[C@H](CC(C)C)N(C)C(=O)[C@H](C(C)C)NC(=O)[C@H](CC(C)C)N(C)C(=O)CN(C)C1=O [DP-648] (cyclo([Abu][dL][NMeL][NMeL][β3hA][NMeS][Aoc(2)][Sar][NMeL]V[NMeL])) | 53 ×10⁻⁶ cm/s | 109 µL/min/mg
CC(C)C[C@@H]1NC(=O)[C@H](CO)N(C)C(=O)[C@H](CC(C)C)N(C)C(=O)[C@H](CC(C)C)N(C)C(=O)[C@H](CC(C)C)N(C)C(=O)[C@@H](C)NC(=O)[C@H](C)NC(=O)[C@H](CC(C)C)N(C)C(=O)C[C@H](C)NC(=O)[C@H](CC(C)C)N(C)C(=O)CN(C)C1=O [DP-649] (cyclo(A[dA][NMeL][NMeL][NMeL][NMeS]L[Sar][NMeL][β3hA][NMeL])) | 22 ×10⁻⁶ cm/s | 27 µL/min/mg
CC[C@@H]1NC(=O)[C@H](CO)N(C)C(=O)[C@H](CC(C)C)N(C)C(=O)[C@H](CC(C)C)N(C)C(=O)[C@H](CC(C)C)N(C)C(=O)[C@@H](CC(C)C)NC(=O)[C@H](C)NC(=O)[C@H](CC(C)C)N(C)C(=O)[C@H](C)NC(=O)[C@H](CC(C)C)N(C)C(=O)C[C@H](C)NC1=O [DP-650] (cyclo(A[NMeL]A[dL][NMeL][NMeL][NMeL][NMeS][Abu][β3hA][NMeL])) | 26 ×10⁻⁶ cm/s | 33 µL/min/mg
CC[C@@H]1NC(=O)C[C@H](C)NC(=O)[C@H](CC(C)C)N(C)C(=O)[C@H](CC(C)C)N(C)C(=O)[C@H](CC(C)C)N(C)C(=O)[C@@H](C)NC(=O)[C@H](CO)NC(=O)[C@H](CC(C)C)N(C)C(=O)[C@H](CC(C)C)NC(=O)[C@H](CC(C)C)N(C)C(=O)CN(C)C1=O [DP-651] (cyclo([Abu][Sar][NMeL]L[NMeL]S[dA][NMeL][NMeL][NMeL][β3hA])) | 24 ×10⁻⁶ cm/s | 68 µL/min/mg
CC(C)C[C@@H]1NC(=O)[C@H](CO)N(C)C(=O)C[C@H](C)NC(=O)[C@H](CC(C)C)N(C)C(=O)[C@H](CC(C)C)N(C)C(=O)[C@@H](C)NC(=O)[C@H](C(C)C)NC(=O)[C@H](CC(C)C)N(C)C(=O)[C@H](C(C)C)NC(=O)[C@H](CC(C)C)N(C)C(=O)CN(C)C1=O [DP-652] (cyclo(L[Sar][NMeL]V[NMeL]V[dA][NMeL][NMeL][β3hA][NMeS])) | 30 ×10⁻⁶ cm/s | 51 µL/min/mg
CC(C)C[C@@H]1NC(=O)[C@H](CC(C)C)N(C)C(=O)[C@H](C(C)C)NC(=O)[C@H](CC(C)C)N(C)C(=O)CN(C)C(=O)[C@H](C(C)C)NC(=O)[C@H](CO)N(C)C(=O)[C@H](CC(C)C)N(C)C(=O)C[C@H](C)NC(=O)[C@H](CC(C)C)N(C)C(=O)[C@@H](C)NC1=O [DP-653] (cyclo(L[dA][NMeL][β3hA][NMeL][NMeS]V[Sar][NMeL]V[NMeL])) | 33 ×10⁻⁶ cm/s | 235 µL/min/mg
CC[C@@H]1NC(=O)[C@H](CO)N(C)C(=O)[C@H](CC(C)C)N(C)C(=O)[C@H](CC(C)C)N(C)C(=O)[C@H](CC(C)C)N(C)C(=O)[C@@H](C)NC(=O)[C@H](C)NC(=O)[C@H](CC(C)C)N(C)C(=O)[C@H](CC)NC(=O)[C@H](CC(C)C)N(C)C(=O)C[C@@H](C(F)(F)F)NC1=O [DP-655] (cyclo(A[dA][NMeL][NMeL][NMeL][NMeS][Abu][X2][NMeL][Abu][NMeL])) | 34 ×10⁻⁶ cm/s | 62 µL/min/mg
CC(C)C[C@@H]1NC(=O)[C@H](CO)N(C)C(=O)C[C@@H](C(F)(F)F)NC(=O)[C@H](CC(C)C)N(C)C(=O)[C@H](CC(C)C)N(C)C(=O)[C@@H](C)NC(=O)[C@H](C)NC(=O)[C@H](CC(C)C)N(C)C(=O)[C@H](CC(C)C)NC(=O)[C@H](CC(C)C)N(C)C(=O)CN(C)C1=O [DP-657] (cyclo(A[dA][NMeL][NMeL][X2][NMeS]L[Sar][NMeL]L[NMeL])) | 24 ×10⁻⁶ cm/s | 157 µL/min/mg
CC(C)C[C@H](NC(=O)[C@H](Cc1ccccc1)N(C)C(=O)[C@@H]1CC(=O)N[C@H](C)C(=O)N[C@@H](C(C)C)C(=O)N(C)[C@@H](Cc2ccccc2)C(=O)N(C)[C@@H](CC(C)C)C(=O)N(C)[C@@H](C)C(=O)N[C@@H]([C@@H](C)O)C(=O)N[C@@H](Cc2ccccc2)C(=O)N1)C(=O)N[C@@H](C)C(=O)N1CCCCC1 [DP-658] ([dA]V[NMeF][NMeL][NMeA]TFD[NMeF]LA-Piperidide; lactam N-8) | 32 ×10⁻⁶ cm/s | 86 µL/min/mg
CC[C@H](C)[C@@H]1NC(=O)[C@H](CC(C)C)N(C)C(=O)CN(C)C(=O)[C@H]([C@@H](C)O)NC(=O)[C@H](C)N(C)C(=O)C[C@@H](C(=O)N(C)[C@@H](C)C(=O)N[C@@H](CC(C)C)C(=O)N[C@H](C(=O)N(C)[C@@H](C)C(=O)N[C@@H](C)C(=O)N2CCCCC2)C(C)C)NC(=O)[C@H](CC(C)C)N(C)C(=O)[C@H](Cc2ccccc2)N(C)C(=O)[C@H](CC(C)C)N(C)C1=O [DP-659] ([NMeA]T[Sar][NMeL]I[NMeL][NMeF][NMeL]D[NMeA]LV[NMeA]A-Piperidide; lactam N-9) | 22 ×10⁻⁶ cm/s | 13 µL/min/mg
CC[C@H](C)[C@@H]1NC(=O)[C@H](CC(C)C)N(C)C(=O)CN(C)C(=O)[C@H]([C@@H](C)O)NC(=O)[C@H](C)N(C)C(=O)C[C@@H](C(=O)N(C)[C@@H](Cc2ccccc2)C(=O)N(C)[C@@H](C)C(=O)N[C@H](C(=O)N[C@@H](C)C(=O)N2CCCCC2)C(C)C)NC(=O)[C@H](CC(C)C)N(C)C(=O)[C@H](Cc2ccccc2)N(C)C(=O)[C@H](CC(C)C)N(C)C1=O [DP-660] ([NMeA]T[Sar][NMeL]I[NMeL][NMeF][NMeL]D[NMeF][NMeA]VA-Piperidide; lactam N-9) | 27 ×10⁻⁶ cm/s | 222 µL/min/mg

— patent US9409952B2, “Peptide-compound cyclization method” (Chugai Seiyaku Kabushiki Kaisha, priority 2011, dated 2016)
